Data reported in patent US8067204B2, “Long-chain chondroitin sugar chain and method for producing the same and method for promoting synthesis of chondroitin” (Seikagaku Corporation, priority 2005, dated 2011).

Molecular target: T1, bacterial cell enzyme (E. coli expressing CH polymerase K4CP) (Escherichia coli, UniProt Q8L0V4)
T1 construct: His tag (from vector pTrcHis); expressed in transfected cells; host or cells: E. coli transformed with the pTrcHis-K4CP vector and induced with IPTG; The whole-cell pellet was used as the enzyme; TOP10 is named only as the preferred host
T1 sequence (Q8L0V4 whole entry): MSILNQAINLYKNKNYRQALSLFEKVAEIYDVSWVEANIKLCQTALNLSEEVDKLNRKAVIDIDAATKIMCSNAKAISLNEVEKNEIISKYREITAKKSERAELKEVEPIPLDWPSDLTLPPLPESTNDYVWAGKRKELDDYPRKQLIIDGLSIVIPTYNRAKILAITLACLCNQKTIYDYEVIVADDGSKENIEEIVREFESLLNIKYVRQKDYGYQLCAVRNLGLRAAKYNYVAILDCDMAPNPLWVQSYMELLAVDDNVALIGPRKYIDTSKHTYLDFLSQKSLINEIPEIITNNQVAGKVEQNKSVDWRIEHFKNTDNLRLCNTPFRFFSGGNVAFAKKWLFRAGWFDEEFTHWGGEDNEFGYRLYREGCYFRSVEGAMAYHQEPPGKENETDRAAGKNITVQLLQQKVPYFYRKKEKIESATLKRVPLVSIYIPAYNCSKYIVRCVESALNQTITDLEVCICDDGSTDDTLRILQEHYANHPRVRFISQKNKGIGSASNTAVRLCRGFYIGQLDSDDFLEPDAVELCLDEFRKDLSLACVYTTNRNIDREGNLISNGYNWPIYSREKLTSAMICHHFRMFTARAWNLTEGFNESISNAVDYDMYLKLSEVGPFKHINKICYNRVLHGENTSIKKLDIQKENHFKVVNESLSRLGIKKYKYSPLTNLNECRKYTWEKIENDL
Assay: Incorporation of [3H]GalNAc into the polymer (CH) fraction by the bacterial cell enzyme
Format: biochemical, Escherichia coli K4 strain
Conditions: for influence of surfactant on incorporation of [3H]GalNAc: FIG. 4
Protocol: According to the method described in Japanese Patent Application No. 2003-199583, the gene of the CH polymerase (K4CP) enzyme derived from E. coli and an expression vector were prepared. the plasmid pTrcHis (manufactured by Invitrogen Corporation) was used as the expression vector. The expression vector obtained by the method was introduced to E. coli. The E. coli was cultured at 37° C. in an ampicillin-containing LB medium until absorbance of the culture medium reached about 0.6 at a wavelength of 600 nm. β-isopropylthiogalactoside (IPTG), which is an expression induction molecule, was added to the culture medium in such an amount that attains a final concentration of 1 mM, and culture was further performed at 37° C. for 3 hours to induce an enzyme expression. 1 ml of the culture medium was taken and transferred to a centrifugation tube to undergo centrifugation at 10,000 rpm for 1 minute. After the supernatant was discarded, a cell precipitate was used a bacterial cell enzyme. Further, the cell precipitate can maintain the enzymatic activity at least for 1 year by storing at −80° C.
To the bacterial cell enzyme obtained in Example 1, 50 mM of Tris-HCl (pH of 7.2) buffer solution containing 20 mM of MnCl2, 150 mM of NaCl, 0.1 nmol of CH6, 3 nmol of UDP-GalNAc, 0.2 μCi of UDP-[^3H] GalNAc, and 3 nmol of UDP-GlcUA, and a surfactant (Nymeen S-215; manufactured by NOF CORPORATION) at a final concentration of 0, 0.1, 0.2, 0.4, 1.0, or 2.0% was added and suspended. Each of the suspensions was shaken at 30° C. for 15 hours. After the reaction, each of the suspensions was heat-treated for 10 minutes in boiling water, and then centrifuged at 15,000 rpm for 5 minutes to remove a precipitate. Each of the supernatants was subjected to gel filtration using Superdex peptide HR 10/30 column (manufactured by Amersham Biosciences Co., Ltd.). The sugar chains in each of the eluted solutions were detected based on the absorbance at 225 nm.
An eluted fraction which corresponds to the absorption peak residing in a polymer region was obtained, and an incorporation of [^3H] GalNAc was detected. The incorporation was shown by the ratio (%) of the incorporated radioactivity with respect to the total radioactivity as 100%.
(§1) The same test as Example 3 was performed using various kinds of surfactants each having a final concentration of 0.4% to examine how various kinds of surfactants influence on the incorporation of [^3H] GalNAc. As an enzyme, the bacterial cell enzyme produced in Example 1 was used. Further, the surfactants used are described below.
as §1, with “organic solvents” for “surfactants”, “1%” for “0.4%”, “the influence of the” for “how”, “organic solvents” for “surfactants influence”, “prepared” for “produced”
The incorporation was shown by the ratio (%) of the incorporated radioactivity with respect to the total radioactivity of [^3H] GalNAc used as 100%. It should be noted that the term “without organic solvent” in FIG. 5 means a case where the bacterial cell enzyme was reacted in the absence of organic solvents.
Besides, in order to examine the concentration dependency in the case of using chloroform as an organic solvent, the same test as Example 3 was performed by setting chloroform concentration in the enzyme reaction solution to 0, 0.5, 1.0, 2.0, 5.0, or 10.0%, thereby the amount of incorporation of [^3H] GalNAc in the polymer fraction was examined.

[1] = surfactant final concentration 0.4%

In the case of `ClC(Cl)Cl` [chloroform, Chloroform], the “incorporation of [3H]GalNAc in the polymer fraction, dependence on chloroform concentration” value (chloroform concentration more than 0% to less than 5% (tested 0, 0.5, 1.0, 2.0, 5.0, 10.0%), FIG. 6) is reported as “promoted” and the “influence of organic solvent on incorporation of [3H]GalNAc” value (organic solvent final concentration 1%, FIG. 5) is reported as “promoted the incorporation”.

`CCCCCCCCCS[C@@H]1O[C@H](CO)[C@@H](O[C@H]2O[C@H](CO)[C@@H](O)[C@H](O)[C@H]2O)[C@H](O)[C@H]1O` [n-nonyl-β-D-thiomaltopyranoside] was tested, and the “influence of surfactant on incorporation of [3H]GalNAc” value (“influence of surfactant” for short) [1] was “particularly efficient incorporation”.

Sucrose monocaprate was tested, and the “influence of surfactant” value [1] was “particularly efficient incorporation”.

With Sucrose monolaurate the “influence of surfactant” value [1] was “particularly efficient incorporation”.

For “polyoxyethylene octadecyl amine [Nymeen S-215]”, the “incorporation of [3H]GalNAc into the polymer fraction (ratio of incorporated to total radioactivity)” value (surfactant concentration 0.4% or more at the time of the enzyme reaction, 30° C., 15 hours, FIG. 1) was “about 37%” and the “incorporation of used [3H]GalNAc into the polymer fraction” value (surfactant final concentration 0.4%, Example 4, reconfirmation) was “about 37%”.
